This passage reports inhibition in vivo results from ChEMBL document CHEMBL5360570, “Discovery of pyrazolo[3,4-b]pyridine derivatives as novel and potent Mps1 inhibitors for the treatment of cancer” (Eur J Med Chem, 2023).

The structures appear in SMILES notation.

This assay deals with HCT-116. Nature of the assay: Antitumor activity against human HCT-116 cells xenografted in mouse assessed as tumor growth inhibition at 6.5 mg/kg, po. Particulars: read-out: TGI. It counts as functional.

`Cc1cc(-c2cnn3c(NC[C@H]4C[C@@](C)(O)C4)cc(Oc4cccnc4)nc23)ccc1C(=O)NC1CC1` [LUVIXASERTIB]: the inhibition in vivo at 6.5 mg/kg amounted to 68%.
